The assay concerns the target T1, HA-L797A CaSR mutant (Rattus norvegicus, UniProt P48442, L797A).
T1 construct: mGluR5 signal peptide (N); expressed in transfected cells; host or cells: HEK293T
T1 sequence (P48442 20-1079 L797A): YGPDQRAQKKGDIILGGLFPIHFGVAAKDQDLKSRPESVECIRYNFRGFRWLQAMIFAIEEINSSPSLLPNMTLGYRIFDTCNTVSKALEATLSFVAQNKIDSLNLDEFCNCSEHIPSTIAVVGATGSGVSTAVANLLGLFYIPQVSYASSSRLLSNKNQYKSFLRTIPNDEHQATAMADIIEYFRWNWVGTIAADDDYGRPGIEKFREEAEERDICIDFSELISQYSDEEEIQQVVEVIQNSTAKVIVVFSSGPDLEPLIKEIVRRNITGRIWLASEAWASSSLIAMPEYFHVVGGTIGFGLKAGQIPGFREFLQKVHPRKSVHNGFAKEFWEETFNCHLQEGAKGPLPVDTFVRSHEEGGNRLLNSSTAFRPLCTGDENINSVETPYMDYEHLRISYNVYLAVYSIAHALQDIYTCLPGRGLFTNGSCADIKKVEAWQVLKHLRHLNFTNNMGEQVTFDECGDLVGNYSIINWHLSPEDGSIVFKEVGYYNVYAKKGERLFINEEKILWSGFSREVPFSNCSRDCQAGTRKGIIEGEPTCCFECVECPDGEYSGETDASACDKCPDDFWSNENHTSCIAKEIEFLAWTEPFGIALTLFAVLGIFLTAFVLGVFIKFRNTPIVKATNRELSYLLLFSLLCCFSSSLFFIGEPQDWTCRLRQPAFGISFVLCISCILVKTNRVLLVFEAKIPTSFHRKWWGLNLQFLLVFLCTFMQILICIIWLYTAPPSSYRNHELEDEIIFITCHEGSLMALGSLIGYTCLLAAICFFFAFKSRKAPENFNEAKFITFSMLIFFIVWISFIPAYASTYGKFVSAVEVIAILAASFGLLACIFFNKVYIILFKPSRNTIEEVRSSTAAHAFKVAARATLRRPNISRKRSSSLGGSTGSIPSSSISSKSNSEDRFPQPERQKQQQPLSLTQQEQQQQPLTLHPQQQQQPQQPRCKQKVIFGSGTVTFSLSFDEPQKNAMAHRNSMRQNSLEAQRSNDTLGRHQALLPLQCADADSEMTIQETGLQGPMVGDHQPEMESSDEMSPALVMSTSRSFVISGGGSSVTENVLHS
Put plainly: IP-One assay, HEK293T transiently transfected. It is filed as cell-based. On the procedure:
Human embryonic kidney (HEK) 293T cells were cultured in DMEM supplemented with 10% dFBS and 1% P/S at 37 °C and 5% CO2. 48 h prior to assay, transient transfection was performed using Lipofectamine 2000 as the transfection reagent. White opaque 96-well culture plates (PerkinElmer, Waltham, MA, USA) were used for the ELISA and the TR-FRET dimerization assay, while clear tissue culture treated 96-well plates (Corning, Corning, NY, USA) were used for the IP-One assay. Both plate types were coated with poly-D-lysine before addition of cells and transfection mix. 0.25 μl/well of Lipofectamine 2000 were diluted in 25 μl/well of Opti-MEM and incubated at room temperature (RT) for 5 min. 0.03 μg/well of DNA was diluted in 25 μl/well of Opti-MEM, and subsequently mixed with the Lipofectamine 2000 dilution and incubated 20 min at RT before addition to the plates. Cell suspensions of 170.000 HEK293T cells/mL were prepared in complete growth medium and 100 μl/well (17.000 cells/well) was added to the plates, which were incubated for 48 h at 37 °C and 5% CO2 before performing assays.
Functional activity was measured using the IP-One assay, which is an IP1 accumulation assay. For agonist testing, ligands were prepared in final concentrations in ligand buffer (HBSS, 20 mM HEPES, pH 7.4 supplemented with 20 mM LiCl). Cells were washed once with 100 μl/well of assay buffer (HBSS, 20 mM HEPES, pH 7.4) and 50 μl/well of agonist solution was added after which plates were incubated at 37 °C for 30 min. Subsequently, ligand solutions were removed and cells were washed with 100 μl/well of assay buffer. Cell lysis was performed by addition of 30 μl/well of IP-One Conjugate & Lysis Buffer (Cisbio Bioassays, Codolet, France) and plates were incubated at RT for 30 min. Afterwards, 30 μl/well of assay buffer was added to dilute the cell lysate. 10 μl/well of cell lysate was transferred from the 96-well plate to a 384-well Optiplate and 10 μl/well of detection solution (Assay buffer + 2.5% of anti-IP1 antibody cryptate Terbium conjugate + 2.5% IP1-d2 conjugate (Cisbio Bioassays, Codolet, France)) was also added. The 384-well plate was incubated for 1 h at RT in dark before being measured on an EnVision plate reader (PerkinElmer, Waltham, MA, USA). Upon excitation at 340 nm, emission at 615 nm and 665 nm was measured, and the FRET ratio (665 nm/615 nm) was converted to IP1 concentrations by interpolating values from an IP1 standard curve generated from a provided IP1 calibrator (Cisbio Bioassays, Codolet, France). When testing allosteric modulators, cells were pre-incubated for 30 min at 37 °C with 50 μl/well of ligand buffer supplemented with allosteric modulator and a final concentration of 1% DMSO. Afterwards, the buffer solution was removed and 50 μl/well of agonist solution in ligand buffer supplemented with allosteric modulator and a final concentration of 1% DMSO was added. Plates were incubated for 30 min at 37 °C followed by one wash in 100 μl/well of assay buffer. Cell lysis and detection was performed as described above.

Several values for one entry are separate records, joined by “and”; a condition that tells them apart may be missing. Equal values may be shown once.

On to `[Ca+2]` [Ca^2+], for which, for the setting “Ca^2+ alone”, the midpoint of the response, the EC50, lay at 11.7 mM; the “Hill coefficient ± S.E.M.” value is reported as 3.22 ± 0.71; the “pEC50 ± S.E.M.” value stood at 1.94 ± 0.04. Also, for the setting “normalized to maximum response of WT CaSR”, the “Max ± S.E.M.” value was 25% and 25 ± 3.5%.

The values above are taken from PMC5394417, “Investigating the molecular mechanism of positive and negative allosteric modulators in the calcium-sensing receptor dimer” (Scientific Reports, 2017).
